We go through one compound from patent US12383547B2, “Methods of treatment for a kidney disease” (Vanderbilt University, priority 2020, dated 2025).

What is called half-life is the time needed for the level to fall by half in the phase considered.

For one series, the system named is AKI in adult patients. Briefly: Epidemiologic EHR analysis (Vanderbilt 'Synthetic Derivative') of montelukast use and AKI. The class given is in vivo, human. To be noted: N=3,721 adult patients, 147 users; logistic regression adjusted for race, sex, age, BMI, asthma; 95% CI: 13 to 56%; AKI defined as printed '≥21.5-fold serum creatine increase from baseline'.
The test system of another series is asthma patients (FEV1). The conditions noted are these: cited from earlier work.
The conditions of series [1]: cited from earlier work.
For another series, the system named is animal models. The conditions noted are these: cited from earlier work.
For series [2] the following is noted: cited from earlier work. The source holds these as a separate data set.
Setting [3] is: single oral dose of 10, 100, or 250 mg.

Like-named read-outs stand apart in the source and are kept apart here.

Text for AKI in adult patients: Epidemiologic EHR data from Vanderbilt's ‘Synthetic Derivative’ was examined to determine whether montelukast use is associated with decreased AKI. Individuals eligible for inclusion in the dataset included those with two or more serum creatinine labs occurring after montelukast gained marketing approval (N=3,721), and children were excluded. Montelukast users were defined as those with ≥23 mentions of montelukast where 22 mentions are 230 days apart (N=147). AKI was defined as a ≥21.5-fold serum creatine increase from baseline (N=1,220). ‘Case users’ were defined as those who qualified as both an AKI case and a montelukast user (N=58). Crude and adjusted odds ratios (OR) and 95% confidence intervals (CI) were calculated using logistic regression.

With `CC(C)(O)c1ccccc1CC[C@@H](SCC1(CC(=O)O)CC1)c1cccc(/C=C/c2ccc3ccc(Cl)cc3n2)c1` [Montelukast, [R-(E)]-1-[[[1-[3-[2-(7-chloro-2-quinolinyl)ethenyl]phenyl]-3-[2-(1-hydroxy-1-methylethyl)phenyl]propyl]thio]methyl]cyclopropaneacetic acid], the “reduced odds (risk) of AKI, montelukast users compared to non-users” value in the series on AKI in adult patients was found to be 38%. Further, in the series with asthma patients (FEV1) (200 mg three times per day), the “FEV1 increase at higher doses versus 10 mg once daily” value was “failed to increase FEV1 more than 10 mg once daily”. In addition, in the series with asthma patients (FEV1) (setting [3]), the “period for which FEV1 effects were maintained” value was 24 h and the “time to significant improvement of FEV1 after administration” value was at most 1 h. For the same compound, the adverse events result in series [1] (200 mg three times per day for 10 days) is on record as “no significant adverse events”. The “safety or effectiveness in subjects 65 years and over versus younger subjects” value in series [1] (clinical studies of montelukast, 3.5% were 65 and over, 0.4% were 75 and over) is reported as “No overall differences in safety or effectiveness”. The neuropsychiatric disturbances entry in series [1] (phase IV post marketing studies, chronic montelukast users, additional research did not support this finding) is recorded as “concern for neuropsychiatric disturbances was noted”. In addition, the adverse events entry in series [1] (single doses of 800 mg) was “no significant adverse events”. The markers of inflammation entry with animal models is given as “attenuate markers of inflammation”. Moreover, the “markers of oxidative stress” value with animal models (leukotriene antagonists such as montelukast) was “attenuate markers of oxidative stress”. Besides, the “plasma concentration in dose ranging study” value in series [2] (dose ranging study of 20-800 mg) is on record as “dose-dependent increase in plasma concentration”. Moreover, in series [2] (human, in vivo), the half-life was 5 h, the “potential for drug-drug interactions” value was “low potential for drug-drug interactions” and the “steady state plasma levels achieved” value is on record as 2 Day of dosing. The “pharmacokinetics in elderly volunteers versus younger adults” value in series [2] (oral 10 mg, elderly (aged 265 years as printed) vs younger adults (aged 20 to 45 years)) is on record as “similar”. In addition, the “elimination via the renal route” value in series [2] (package insert) is recorded as “not significantly eliminated via the renal route”.
